# Entries after “also recorded” stand apart in the source; their conditions may differ.
# Tests used:
# [1] = Solubility (pH 2, pH 7, ethyl acetate); format: physicochemical
# Source text: In the above table, the physicochemical data, e.g., solubility, were obtained following standard protocols known in the field (see, e.g., Reis et al., Mini Rev Med Chem., 2010, 10(11):1071-6; Avdeef et al., Expert Opin Drug Metab Toxicol., 2005, 1(2):325-42; Bharate et al., Comb Chem High Throughput Screen., 2016, 19(6):461-9; and Jain et al., J Pharm Biomed Anal., 2013, 86:11-35.); and the biochemical data, i.e., potency for ETA/ETB, were obtained following the protocols known in the field (see, e.g., Kirkby et al., Br J Pharmacol., 2008, 153(6):1105-19; and Maguire et al., Br J Pharmacol., 2014, 171(24):5555-72.).
# ET-1 induced vasospasm = test: Rabbit ET-1 induced vasospasm model, retinal blood flow (FA, OCT-A); format: in vivo, rabbit (Oryctolagus cuniculus)
# Protocol: Adult, male Dutch-belted rabbits were given a 20 μl intravitreal injection (IVT) of 0.5 μg of ET-1 followed by a 20 μl intravitreal injection of 10-100 μg Edonentan given 30 min after the ET-1 administration. IOP, optical coherence tomography-angiography (OCT-A), and fluorescein angiograms (FA) were performed at pre-specified time points (30, 45, 60, and 75 min) following ET-1 and Edonentan administration to assess retinal blood flow changes induced by ET-1+/−Edonentan. […] To evaluate the effect of retinal blood flow following intravitreally administered endothelin-1 (ET-1) followed by the antagonist Edonentan in the rabbit, rabbits (Oryctolagus cuniculus) were given a 20 μL intravitreal injection of ET-1 in the left eye followed by a 20 μL intravitreal injection of Edonentan at 2 (or 3) different doses (e.g. 0.1 μg, 0.5 μg, 2.5 μg). The pulse ox, tonometry, optical coherence tomography angiography (OCTA), fluorescein angiography (FA) and retinal leakage scoring were performed for evaluation.
# [2] = system: Morrison's rat model of glaucoma (elevated IOP); test: Morrison's rat model of glaucoma (RGC counts, PERG); format: in vivo, Brown Norway rats; conditions: topical eye drops 100 μg per dose, five days a week, four weeks
# Source text: Adult male and female retired breeder Brown Norway rats (approximate age groups of 8 to 11 months) were obtained from Envigo (Indianapolis, IN). Baseline IOP measurements and pattern electroretinogram (PERG) amplitudes were collected prior to the surgery for elevation of IOP (to ensure that the IOP and PERG amplitudes were in the expected range of values). IOP was elevated in one eye (left eye) of the rats, while the corresponding right eyes served as contralateral controls. The Morrison method to elevate IOP in rats was carried out by injection of 50 μL. of hypertonic saline through the episcleral veins to sclerose the trabecular meshwork. IOP was measured twice a week throughout the entire duration of the experiment. […] After detecting an elevation of IOP for two consecutive days, topical administration of eye drops (20 μL (100 μg) per dose of the tested compounds in the IOP elevated eye) was commenced and carried out for five days a week for a total of four weeks. In the 4th week of treatment, PERG analysis was carried out and rats were sacrificed by an overdose of pentobarbital (Fatal-Plus). Aqueous humor was collected from the rat eyes, frozen and shipped for analysis. Retinal flat mounts were prepared, immunostained with the RGC marker, Brn3a antibody and surviving RGCs were counted in two eccentricities (central and peripheral).
# For this study, the Morrison's model was used to induce ocular hypertension in adult male retired breeder Brown Norway rats as previously described by Morrison et al., (Morrison J C, Moore C G, Deppmeier L M, Gold B G, Meshul C K, Johnson E C. A rat model of chronic pressure-induced optic nerve damage. Exp Eye Res. 1997; 64(1):85-96).
# The immunostained retinal flat mounts were obtained to measure the retinal ganglion cell (RGC) counts. To obtain immunostained retinal flat mounts, the animals were euthanized after the treatments and then their eyes were enucleated. The eye cups were fixed overnight at 4° C. in 4% paraformaldehyde (PFA) and retinal flat mounts were prepared for collecting images. The retinal ganglion cell (RGC) counting was conducted using the images of immunostained retinal flat mounts. The images were uploaded to ImageJ, a photo editor designed for biology research (Rasband, 1997-2018) and the labeled retinal ganglion cells were counted manually in two eccentricities (central and peripheral).
# Pattern ERG (PERG) was used to assess the RGC function. […] Briefly, PERG signals were acquired from a DTL-plus electrode placed on the lower part of the corneal surface and the PERG waves were analyzed using the EMWIN software (LKC). The difference between the amplitude of the major positive (P1) and negative (N2) waves were calculated to decipher the PERG amplitude.
# [3] = Pharmacokinetics after intravitreal administration in the rabbit; format: in vivo, rabbits (Oryctolagus cuniculus); conditions: IVT, plasma and ocular tissues
# Protocol: To determine the pharmacokinetic and safety properties of Edonentan following intravitreal administration in the rabbit, rabbits (Oryctolagus cuniculus) received bilateral intravitreal injections (20 μL injection volume/eye). Following the injections, animals were tranquilized with a ketamine/xylazine cocktail, and then the animals were euthanized with an overdose of sodium pentobarbital (Euthasol). Animals designated for the pharmacokinetic analysis were euthanized at different time points (e.g. 12, 16, 24, 36 and 48 hours). At least 1.0 mL of whole blood was drawn from the marginal ear vein or cardiac puncture (terminal bleed only) into K2EDTA tubes for plasma collection and processed for analytical analysis.
# Immediately following euthanasia, the eyes was enucleated. Aqueous humor from both eyes was removed via syringe and snap frozen for analysis. Eyes were dissected when frozen to isolate various ocular tissues and minimize drug diffusion to adjacent tissues. Tissues from left and right eyes were collected in separate vials for analysis. List of tissues collected include plasma and aqueous humor, iris/ciliary body (ICB), retina, vitreous humor and RPE/choroid. The pharmacokinetic properties of intravitreally delivered Edonentan in rabbits are shown in FIG. 9A, FIG. 9B, FIG. 9C and FIG. 9D.
smiles,measurement,setting,value
"Cc1onc(NS(=O)(=O)c2ccccc2-c2ccc(-c3ncco3)cc2CN(C)C(=O)CC(C)(C)C)c1C [Edonentan, N-[[2′-[[(4,5-dimethyl-3-isoxazolyl)amino]sulfonyl]-4-(2-oxazolyl)[1,1′-biphenyl]-2-yl]methyl]-N,3,3-trimethylbutanamide]","Solubility in Ethyl Acetate, rating in words",[1]; ethyl acetate,Good
same,Solubility at pH 2,[1]; pH 2,<1 μM
same,"Solubility at pH 7, comparison in words",[1]; pH 7,superior to that of A-182086
same,ET-1 induced vasospasm / vasoconstriction (fluorescein angiography),"ET-1 induced vasospasm; 0.5 μg ET-1 IVT, then 10 μg Edonentan IVT 30 min later",reversed; also recorded: reversal
same,Time to reversal of the ET-1 effect,"ET-1 induced vasospasm; after ET-1, 10 μg Edonentan IVT (60 min after Edonentan)",≤ 90 min
same,Fluorescein dye velocity as an index of retinal blood flow,"ET-1 induced vasospasm; healthy rabbits, 0.5 μg ET-1 and 10 μg antagonist IVT",improved to control levels
same,"Pattern electroretinogram (PERG) changes, RGC function",[2],maintained RGC function
same,Retinal ganglion cell (RGC) counts in the peripheral retina,[2],prevented RGC loss
same,t1/2 after intravitreal delivery,[3],longer t1/2

# Reference: patent US20260076948A1, “TREATMENT OF DIABETIC RETINOPATHY USING ENDOTHELIN RECEPTOR ANTAGONISTS” (Perfuse Therapeutics, Inc., priority 2019, published 2026)
